# Test results published in patent US20170333450A1, “COMPOSITIONS AND METHODS FOR TREATING HIV-ASSOCIATED COGNITIVE DYSFUNCTION” (The Regents of the University of California, priority 2014, published 2017).
# “Also recorded” adds a separate entry of the source.
# Legend:
# heme-oxygenase-1 (HO-1) = assay: HO-1 expression in HIV-infected and non-infected monocyte-derived macrophages (MDM) treated with test drug; type: cell-based, human; settings: Bardoxolone 5 nM or 50 nM, FIG. 1, Panel A
# Text: (§1) FIG. 1 includes three panels identified as panels A, B, and C showing the results of preclinical testing of Bardoxolone in human monocyte-derived macrophages (MDM) and primary rodent neurons. […] “Mock 1” and “Mock 2” correspond to supernatant from untreated, uninfected macrophages run in parallel with treated macrophages. “Vehicle 1” and “Vehicle 2” correspond to supernatant from macrophages that received 0.05% DMSO and no additional drug. […] This effect is seen at Bardoxolone concentrations as low as 5 nM.
# (§2) Monocyte-derived macrophages (MDM), obtained from uninfected donors, were pretreated with Bardoxolone (5 nM or 50 nM), Tempol, 4-hydroxy-2,2,6,6-tetramethylpiperidin-1-oxyl, (500 nM or 5 μM) or control (0.05% DMSO) for 24 hours prior to HIV infection. […] See FIG. 1, Panel A. This enhanced HO-1 expression decreases release of soluble neurotoxins from infected MDM. “Mock 1” and “Mock 2” correspond to supernatant from untreated, uninfected macrophage run in parallel with treated macrophages. “Vehicle 1” and “Vehicle 2” correspond to supernatant from macrophages that received 0.05% DMSO and no additional drug. Final concentration of DMSO in all treated wells is 0.05%.
# [1] = test system: HIV-infected U1 monocytes; assay: Viral expression (p24 gag) in HIV-infected U1 monocytes after LPS stimulation; type: cell-based; settings: 250 nM pre-treatment overnight, LPS activated; FIG. 2
# Experimental: As such, methods for reducing viral replication may reduce risk for HAND. In another series of experiments, HIV-infected monocytes were exposed to a virus replication stimulus to determine if pretreatment with Bardoxolone inhibited viral replication. […] Here, a comparison of control cells with those pre-treated with either Tempol (1 μM) or Bardoxolone (250 nM) overnight was performed. The cells were then split into two conditions: LPS activated and non-LPS.
# primary rodent neurons = assay: Neurotoxicity of MDM culture supernatants on cultured primary rodent neurons (MAP-2 expression); type: cell-based; settings: supernatants of HIV infected MDM on primary rodent neurons, FIG. 1, Panel C
# Text: as §1
# In addition, pre-treated neurons were exposed to the supernatants. Briefly, MDM culture supernatants are applied to cultured primary rodent neurons to test for MDM culture supernatant neurotoxicity. […] This is an indication of neuronal health.
# HIV = HIV replication in MDM by reverse transcriptase (RT) activity in the culture supernatant; type: cell-based; settings: FIG. 1, Panel B
# Text: as §1, §2
# Viral replication was determined via reverse, transcriptase (RT) expression in the cell culture supernatant. The RT assay measured incorporation of ^32P dT into long chain poly rA.
compound,measurement,setting,value
CC1(C)CC[C@]2(C(=O)O)CC[C@]3(C)[C@H](C(=O)C=C4[C@@]5(C)C=C(C#N)C(=O)C(C)(C)[C@@H]5CC[C@]43C)[C@@H]2C1 [Bardoxolone],expression of HO-1 in HIV-infected MDM,heme-oxygenase-1 (HO-1); 24 hours before HIV infection and throughout infection,enhanced expression
same,expression of HO-1 in non-infected MDM,heme-oxygenase-1 (HO-1),enhanced expression
same,amount of viral expression (p24 gag) following stimulation,[1],reduced; also recorded: decreased
same,levels of MAP-2 in the neuron cultures,primary rodent neurons,maintenance or normal levels
same,neurotoxicity of the MDM cell culture supernatants,primary rodent neurons; compared to vehicle control and to Tempol,dramatically reduced
same,concentration at which reduction of HIV replication in MDM is seen,"HIV; lowest concentration tested, RT activity",≤ 5 nM
same,HIV reverse transcriptase (RT) activity in the culture supernatants (HIV replication in MDM),"HIV; pre-treatment 24 hours before HIV infection, 5 nM or 50 nM",reduced levels
